{
  "source": "patent US6638523B1",
  "about": "“Method of treating ulcers” (Nagase & Company, Ltd., priority 1999, dated 2003)",
  "key": {"[1]": {"system": "ulcers developed in the stomach", "assay": "Ethanol-induced gastric ulcer in rats", "type": "in vivo, Wistar male rats", "conditions": "for ED50: Rattus norvegicus, oral administration 30 min before 1 ml ethanol (99.5%), total ulcer length after 1 h, read-out: ED50 (anti-ulcer action); for anti-ulcer action: oral, carnosic acid 1, 5, 25 mg/kg, carnosol 2.5, 10, 25 mg/kg, ethanol ulcer, FIG. 1 and 2", "procedure": "To Wistar male rats (5 rats per group) of 180-200 g body weight fasted for 24 hours before the start of a test, carnosic acid obtained in Example 1 was orally administered in dose levels of 1, 5 and 25 mg per kg body weight, after suspending it in water. Similarly, carnosol obtained in Example 1 was orally administered in dose levels of 2.5, 10 and 25 mg per kg body weight, after suspending it in water. After 30 minutes of the administration, 1 ml of ethanol (99.5%) was orally administered to each rat. After one hour of the ethanol administration, laparotomy was carried out and the lengths of all ulcers developed in the stomach were measured and added up. Similar measurements were carried out on the rats of the control group which received ethanol without receiving the above compounds and the result obtained was compared with the above results."}, "[2]": {"system": "ulcers developed in the stomach", "conditions": "well known anti-ulcer compound, comparison value; cited from earlier work"}},
  "data": [
    {"molecule": "CC(C)c1cc2c(c(O)c1O)[C@@]1(C(=O)O)CCCC(C)(C)[C@@H]1CC2", "note": "[carnosic acid]", "values": [
      {"measurement": "ED50", "setting": "[1]", "value": 3.1, "unit": "mg/kg"},
      {"measurement": "anti-ulcer action", "setting": "[1]", "value": "potent anti-ulcer action"}
    ]},
    {"molecule": "NC(N)=Nc1nc(CSCCN/C=N/S(=O)(=O)c2ccc(Br)cc2)cs1", "note": "[ebrotidine]", "values": [
      {"measurement": "ED50 (anti-ulcer action), comparison compound", "setting": "[2]", "value": 26.54, "unit": "mg/kg"}
    ]},
    {"molecule": "CC(C)c1cc2c(c(O)c1O)[C@@]13CCCC(C)(C)[C@@H]1C[C@@H]2OC3=O", "note": "[carnosol]", "values": [
      {"measurement": "ED50", "setting": "[1]", "value": 9.6, "unit": "mg/kg"},
      {"measurement": "anti-ulcer action", "setting": "[1]", "value": "potent anti-ulcer action"}
    ]}
  ]
}
